This passage reports IC50 results from US7098340B2, “Benzyl sulfonamide derivatives” (Warner Lambert Company LLC, priority 2003, dated 2006).

This assay deals with T1, androgen receptor (Homo sapiens, UniProt P10275).
T1 sequence (P10275 1-920 Q868H): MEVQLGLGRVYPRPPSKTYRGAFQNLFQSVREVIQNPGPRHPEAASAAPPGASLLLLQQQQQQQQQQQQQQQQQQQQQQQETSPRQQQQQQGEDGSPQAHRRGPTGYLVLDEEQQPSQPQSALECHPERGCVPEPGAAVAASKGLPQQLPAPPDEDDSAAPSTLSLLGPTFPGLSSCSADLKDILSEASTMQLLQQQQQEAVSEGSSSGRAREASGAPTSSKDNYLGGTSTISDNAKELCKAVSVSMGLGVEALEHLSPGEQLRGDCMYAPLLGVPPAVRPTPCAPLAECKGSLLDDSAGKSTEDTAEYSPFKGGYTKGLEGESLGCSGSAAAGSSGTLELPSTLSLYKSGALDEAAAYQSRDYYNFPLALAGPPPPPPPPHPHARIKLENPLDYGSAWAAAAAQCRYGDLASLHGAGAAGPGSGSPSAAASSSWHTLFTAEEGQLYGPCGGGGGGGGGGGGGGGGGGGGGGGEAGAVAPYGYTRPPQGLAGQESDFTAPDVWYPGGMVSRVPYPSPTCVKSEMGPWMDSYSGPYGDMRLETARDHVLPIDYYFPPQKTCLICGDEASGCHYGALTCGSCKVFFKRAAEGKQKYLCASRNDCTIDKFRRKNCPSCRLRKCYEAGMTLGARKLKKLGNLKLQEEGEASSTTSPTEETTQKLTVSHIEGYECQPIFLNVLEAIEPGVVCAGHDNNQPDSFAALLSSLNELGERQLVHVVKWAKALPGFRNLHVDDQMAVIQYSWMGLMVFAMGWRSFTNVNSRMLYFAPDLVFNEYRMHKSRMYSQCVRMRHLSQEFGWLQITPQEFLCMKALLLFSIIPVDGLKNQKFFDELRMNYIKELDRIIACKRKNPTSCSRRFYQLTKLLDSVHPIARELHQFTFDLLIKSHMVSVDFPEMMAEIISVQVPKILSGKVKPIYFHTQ
Description: AR Antagonist Cell Assay (MMTV-luciferase reporter, DHT-stimulated). Format: cell-based. As to conditions: MDA-MB453-MMTV clone 54-19 cells; antagonism of 100 pM DHT, 17 hr, luciferase readout. As to the method:
The compounds ability to antagonize the effects of androgen on the androgen receptor were determined in the protocol described immediately below.
Experimental Procedure for AR Antagonist Cell Assay
Cell line: MDA-MB453-MMTV clone 54–19. This cell line is a stable transfected cell line with MDA-MB453 cell background (human breast tumor cell expressing high level of androgen receptor). A MMTV minimal promoter containing ARE was first cloned in front of a firefly luciferase reporter gene. Then the cascade was cloned into transfection vector pUV120puro. Electroporation method was used for transfecting MDA-MB-453 cell. Puromycin resistant stable cell line was selected.
Cell Culture Media and Reagents:
Culture medium: DMEM (high glucose, Gibco cat #: 11960-044), 10% FBS, and 1% L-glutamine
Plating medium: DMEM (phenol red free), 10% charcoal treated HyClone serum, 1% L-glutamine
Assay medium: DMEM (phenol red free), 1% charcoal treated HyClone serum, 1% L-glutamine, and 1% penicillin/streptomycin
3× luciferase buffer: 2% beta-mercaptoethanol, 0.6% ATP, 0.0135% luciferine in cell lysis buffer
• 1. Cells are maintained in culture medium, splitting cells when they reach 80–90% confluence • 2. To test compounds, 10,000 cells/well are plated to opaque 96 cell culture plate in 100 ul/well plating medium, culture for overnight at 37° C. in cell culture incubator • 3. Carefully remove plating medium, then add 80 ul/well of pre-warmed assay medium, add 10 ul/well testing compound (final concentration at 10 uM or 1 uM), incubate at 37° C. for 30 minutes • 4. Add 10 ul/well freshly prepared DHT (final concentration at 100 pM) to each well, incubate at 37° C. for 17 hr (overnight) • 5. Add 50 ul/well 3× luciferase buffer, incubate at room temperature for 5 minutes, then count on Luminometer.
The fold induction over background by 100 pM DHT in the absence of testing compounds is standardized as 100% and experimental result is expressed as percentage of inhibition by testing compounds.
For orientation: Reporter assays use an easily measured gene product as a stand-in for the process of interest.
A word on the IC50: it is the concentration that gives 50% inhibition. Low values mean greater potency in that assay, high ones weaker potency in that assay. With `CCCCN(CC)S(=O)(=O)c1ccc(Cc2ccc3oc(=O)cc(C(F)(F)F)c3c2)cc1` [Example 99, N-Butyl-N-ethyl-4-(2-oxo-4-trifluoromethyl-2H-chromen-6-ylmethyl)benzenesulfonamide], half-maximal inhibition (IC50) was put at 4.15 µM. Regarding `CC(C)N(c1ccccc1)c1ccc(NS(=O)(=O)c2ccc(Cc3ccc4[nH]c(=O)cc(C(F)(F)F)c4c3)cc2)cc1` [Example 48, N-[4-(Isopropylphenylamino)-phenyl]-4-(2-oxo-4-trifluoromethyl-1,2-dihydroquinolin-6-ylmethyl)-benzenesulfonamide], the IC50 worked out at 4.97 µM. Then `O=c1cc(C(F)(F)F)c2cc(Cc3ccc(S(=O)(=O)NCCN4CCCC4)cc3)ccc2[nH]1` [Example 56, 4-(2-Oxo-4-trifluoromethyl-1,2-dihydroquinolin-6-ylmethyl)-N-(2-pyrrolidin-1-yl-ethyl)-benzenesulfonamide], with 3.64 µM; and `O=c1cc(C(F)(F)F)c2cc(Cc3ccc(S(=O)(=O)NC4CCN(Cc5ccccc5)CC4)cc3)ccc2o1` [Example 157, N-(1-Benzylpipendin-4-yl)-4-(2-oxo-4-trifluoromethyl-2H-chromen-6-ylmethyl)benzenesulfonamide], with 6.09 µM.

As for `O=c1cc(C(F)(F)F)c2cc(Cc3ccc(S(=O)(=O)NCCc4cccs4)cc3)ccc2o1` [Example 176, 4-(2-Oxo-4-trifluoromethyl-2H-chromen-6-ylmethyl)-N-(2-thiophen-2-ylethyl)benzenesulfonamide], 6 µM corresponded to half-maximal inhibition (IC50). `CC(CNS(=O)(=O)c1ccc(Cc2ccc3oc(=O)cc(C(F)(F)F)c3c2)cc1)c1ccccc1` (stereo not drawn) [Example 180, 4-(2-Oxo-4-trifluoromethyl-2H-chromen-6-ylmethyl)-N-(2-phenylpropyl)-benzenesulfonamide] gave an IC50 of 2.06 µM. Then `O=c1cc(C(F)(F)F)c2cc(Cc3ccc(S(=O)(=O)NC4(CO)CCCC4)cc3)ccc2o1` [Example 167, N-(1-Hydroxymethyl-cyclopentyl)-4-(2-oxo-4-trifluoromethyl-2H-chromen-6-ylmethyl)benzenesulfonamide], with above 10 µM; and `C[C@H](NS(=O)(=O)c1ccc(Cc2ccc3oc(=O)cc(C(F)(F)F)c3c2)cc1)c1ccccc1` [Example 172, 4-(2-Oxo-4-trifluoromethyl-2H-chromen-6-ylmethyl)-N-(1-phenylethyl)-benzenesulfonamide], with 4.66 µM. In turn, `Cc1ccc(F)c(CNS(=O)(=O)c2ccc(Cc3ccc4oc(=O)cc(C(F)(F)F)c4c3)cc2)c1Cl` [Example 200, N-(2-Chloro-6-fluoro-3-methylbenzyl)-4-(2-oxo-4-trifluoromethyl-2H-chromen-6-ylmethyl)benzenesulfonamide] yielded an IC50 of 6.91 µM.

`O=c1cc(C(F)(F)F)c2cc(Cc3ccc(S(=O)(=O)Nc4cccc(OC(F)F)c4)cc3)ccc2o1` [Example 143, N-(3-Difluoromethoxyphenyl)-4-(2-oxo-4-trifluoromethyl-2H-chromen-6-ylmethyl)-benzenesulfonamide] displayed an IC50 of 2.81 µM. Turning to `O=c1cc(C(F)(F)F)c2cc(Cc3ccc(S(=O)(=O)NCC4CCCC[C@H]4O)cc3)ccc2o1` (stereo in doubt) [Example 177, N-(2-Hydroxycyclohexylmethyl)-4-(2-oxo-4-trifluoromethyl-2H-chromen-6-ylmethyl)benzenesulfonamide], the IC50 was 5.77 µM. Then `O=c1cc(C(F)(F)F)c2cc(Cc3ccc(S(=O)(=O)NCc4ccccc4OC(F)F)cc3)ccc2[nH]1` [Example 83, N-(2-Difluoromethoxybenzyl)-4-(2-oxo-4-trifluoromethyl-1,2-dihydroquinolin-6-ylmethyl)-benzenesulfonamide], with above 10 µM; and `O=c1cc(C(F)(F)F)c2cc(Cc3ccc(S(=O)(=O)NCCN4CCOCC4)cc3)ccc2[nH]1` [Example 62, N-(2-Morpholin-4-ylethyl)-4-(2-oxo-4-trifluoromethyl-1,2-dihydroquinolin-6-ylmethyl)-benzenesulfonamide], with 6.66 µM; and `O=c1cc(C(F)(F)F)c2cc(Cc3ccc(S(=O)(=O)Nc4ccccc4Cl)cc3)ccc2[nH]1` [Example 18, N-(2-Chlorophenyl)-4-(2-oxo-4-triftuoromethyl-1,2-dihydroquinolin-6-ylmethyl)-benzenesulfonamide], with 3.16 µM.

For the compound `Cc1ccc(F)cc1CNS(=O)(=O)c1ccc(Cc2ccc3oc(=O)cc(C(F)(F)F)c3c2)cc1` [Example 185, N-(5-Fluoro-2-methylbenzyl)-4-(2-oxo-4-trifluoromethyl-2H-chromen-6-ylmethyl)-benzenesulfonamide], the IC50 was 4.06 µM.

Compound `O=c1cc(C(F)(F)F)c2cc(Cc3ccc(S(=O)(=O)NCc4cc(C(F)(F)F)ccc4F)cc3)ccc2o1` [Example 204, N-(2-Fluoro-5-trifluoromethylbenzyl)-4-(2-oxo-4-trifluoromethyl-2H-chromen-6-ylmethyl)benzene-sulfonamide] gave an IC50 above 10 µM. In the case of `CC(C)N(C)S(=O)(=O)c1ccc(Cc2ccc3[nH]c(=O)cc(C(F)(F)F)c3c2)cc1` [Example 7, N-Isopropyl-N-methyl-4-(2-oxo-4-trifluoromethyl-1,2-dihydroquinolin-6-ylmethyl)benzenesulfonamide] it was above 10 µM; in that of `CC(C)Oc1cccc(NS(=O)(=O)c2ccc(Cc3ccc4oc(=O)cc(C(F)(F)F)c4c3)cc2)c1` [Example 142, N-(3-Isopropoxyphenyl)-4-(2-oxo-4-trifluoromethyl-2H-chromen-6-ylmethyl)-benzenesulfonamide], around 10 µM; in that of `N#CCc1ccc(NS(=O)(=O)c2ccc(Cc3ccc4oc(=O)cc(C(F)(F)F)c4c3)cc2)cc1` [Example 126, N-(4-Cyanomethylphenyl)-4-(2-oxo-4-trifluoromethyl-2H-chromen-6-ylmethyl)-benzenesulfonamide], 1.89 µM. In the case of `CC(O)c1cccc(NS(=O)(=O)c2ccc(Cc3ccc4oc(=O)cc(C(F)(F)F)c4c3)cc2)c1` (stereo not drawn) [Example 133, N-[3-(1-Hydroxyethyl)phenyl]-4-(2-oxo-4-trifluoromethyl-2H-chromen-6-ylmethyl)-benzenesulfonamide] it was 6.91 µM; in that of `O=c1cc(C(F)(F)F)c2cc(Cc3ccc(S(=O)(=O)Nc4cccc5cccnc45)cc3)ccc2o1` [Example 137, 4-(2-Oxo-4-trifluoromethyl-2H-chromen-6-ylmethyl)-N-quinolin-8-ylbenzenesulfonamide], 7.08 µM; in that of `N#Cc1cccc(NS(=O)(=O)c2ccc(Cc3ccc4[nH]c(=O)cc(C(F)(F)F)c4c3)cc2)c1` [Example 16, N-(3-Cyanophenyl)-4-(2-oxo-4-trifluoromethyl-1,2-dihydroquinolin-6-ylmethyl)-benzenesulfonamide], 2.02 µM.

As for `COc1ccc(OC)c(NS(=O)(=O)c2ccc(Cc3ccc4[nH]c(=O)cc(C(F)(F)F)c4c3)cc2)c1` [Example 33, N-(2,5-Dimethoxyphenyl)-4-(2-oxo-4-trifluoromethyl-1,2-dihydroquinolin-6-ylmethyl)-benzenesulfonamide], the IC50 is above 10 µM. For the compound `CCc1ccc(NS(=O)(=O)c2ccc(Cc3ccc4oc(=O)cc(C(F)(F)F)c4c3)cc2)cc1` [Example 120, N-(4-Ethylphenyl)-4-(2-oxo-4-trifluoromethyl-2H-chromen-6-ylmethyl)-benzenesulfonamide], the half-inhibitory concentration (IC50) is 1.32 µM.
